Molecules are shown by their SMILES.

Data set [1] has as its target T1, ENL (Homo sapiens, UniProt Q03111).
T1 sequence (Q03111 1-559): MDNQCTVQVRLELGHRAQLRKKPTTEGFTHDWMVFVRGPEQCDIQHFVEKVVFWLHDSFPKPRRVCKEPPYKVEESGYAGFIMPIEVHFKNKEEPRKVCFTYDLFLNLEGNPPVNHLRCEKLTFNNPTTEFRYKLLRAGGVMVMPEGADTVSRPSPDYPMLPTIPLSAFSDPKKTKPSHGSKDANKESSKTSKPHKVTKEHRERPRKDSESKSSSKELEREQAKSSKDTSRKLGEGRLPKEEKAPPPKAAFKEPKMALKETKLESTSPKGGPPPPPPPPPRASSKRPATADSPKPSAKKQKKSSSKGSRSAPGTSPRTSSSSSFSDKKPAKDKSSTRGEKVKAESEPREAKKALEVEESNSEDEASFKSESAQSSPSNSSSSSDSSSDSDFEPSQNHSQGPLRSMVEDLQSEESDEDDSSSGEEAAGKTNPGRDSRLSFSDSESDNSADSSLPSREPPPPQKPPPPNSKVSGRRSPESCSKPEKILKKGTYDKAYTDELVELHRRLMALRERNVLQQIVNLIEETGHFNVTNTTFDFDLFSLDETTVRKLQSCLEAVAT
Description: ENL degradation in MV4;11 cells (Western blot). Set-up: endogenous in cells; host or cells: MV4;11. In kind it is cell-based. As to conditions: 24 h. The procedure:
We next tested whether these compounds degrade ENL and AF9 in MV4;11 leukemia cells with the MLL1-AF4 oncogene. Upon compound treatment for 24 h, the cells were washed, lysed, and the lysates subjected to SDS-PAGE (sodium dodecyl sulfate–polyacrylamide gel electrophoresis) followed by detection with Western blot.
(§1) 3 × 10^6 cells/well were treated with increasing concentrations of a compound for 1 day, and whole proteins were extracted. Equal amounts of proteins were separated on SDS-PAGE and transferred to PVDF membranes. The blots were probed with primary antibodies, followed by anti-rabbit IgG (Thermo Scientific) secondary antibodies. The primary antibodies against ENL (Cell signaling #14893), AF9 (Novusbio #NB100-1565), DOT1L (Cell signaling #77087), AFF4 (Abcam #ab103586), Cyclin T1 (Cell signaling #81464), H3K79me2 (Cell signaling #5427), H3K79me1 (Cell signaling #9398), Histone H3 (Cell signaling #4499), FLAG (Sigma-Aldrich #F1804), β-Actin (Cell signaling #4970) were used in this study.
(In general: Immunoblotting shows a protein as a band on a membrane.)

In data set [2] the test system is blood and solid tumor cells. The data set is described as follows: Antiproliferation assay, ranges given over several cell lines. As to conditions: AML Kasumi-1, myeloma RPMI-8226 and U266; read-out: EC50 against Kasumi-1, RPMI-8226 and U266 cells (range over cell lines). It is filed as cell-based.
Description: (§2) Proliferation inhibition assays for suspension blood cancer cells were performed using an XTT assay kit (Biotium), following our previous methods [22]. EC50 values were determined using Prism 5 and from at least three independent experiments.
Data set [3] concerns the target T2, ENL YEATS (Homo sapiens, UniProt Q03111).
T2 sequence (Q03111 1-138): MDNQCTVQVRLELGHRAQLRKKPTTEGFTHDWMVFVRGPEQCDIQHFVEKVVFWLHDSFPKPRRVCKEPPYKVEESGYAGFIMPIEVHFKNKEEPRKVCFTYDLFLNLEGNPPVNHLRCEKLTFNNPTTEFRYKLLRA
Description: cDNA for human ENL YEATS domain (1–138) was synthesized (by Genscript) and cloned into pET-28a vector.
AlphaScreen binding assay was developed using Perkin-Elmer AlphaScreen Histidine (Nickel Chelate) Detection Kit, following a reported protocol [39]. Data were imported into Prism (version 5.0), and IC50 values from 3 independent experiments with standard deviation were obtained by using a standard dose–response curve fitting.

Data set [4] deals with Panc1 cells. The data set is described as follows: Antiproliferation assay, Panc1. As to conditions: Homo sapiens, PANC-1, 168 h, read-out: Antiproliferative activity, EC50, Panc1.
In data set [5] the target is T1, ENL. Description: ENL degradation in Molm-13 cells (Western blot). It is filed as cell-based. Set-up: endogenous in cells. As to conditions: MOLM-13, Molm-13 cells, 24 h. As for the experimental part: In addition, compound 1 efficiently degraded ENL in another MLL1-r leukemia Molm-13 cells (with MLL1-AF9) with DC50 of 47 nM and Dmax of ~ 88% (Fig. 3e). Moreover, significant ENL degradation can be detected in 2 h and depletion occurred within 24 h (Fig. 3f).
as §1

Data set [6] relates to AF9, AFF4, cyclin-T1, DOT1L. Description: Other SEC-related proteins in nucleus of MV4;11 cells (Western blot). In kind it is cell-based. To be noted: 4 days.
Excerpt: We further investigated how compound 1 affects ENL, AF9 and other proteins of SEC in the cytoplasmic and nuclear compartments, the latter of which are more relevant to the functions of these transcription cofactors. […] Upon treatment of MV4;11 cells with these compounds for 4 days, cytoplasmic and nuclear proteins were separated and subjected to SDS-PAGE/Western blot. […] In addition, nuclear levels of H3K79 methylation, the product of DOT1L catalyzed reactions, were not consistently affected by compound 1.
as §1

Data set [7] relates to Molm-13 cells. The data set is described as follows: Cell differentiation (CD14, CD11b, FACS) in Molm-13 cells. In kind it is cell-based, human. To be noted: 3 μM for 5 days. As for the experimental part: Treatment of Molm-13 cells with compound 1 for 7 days at 1 and 3 µM caused significant apoptosis of 22.7% and 67.6%, respectively (Fig. 6c and Additional file 1: Fig. S6).
For Annexin V apoptosis assay, 10^5 cells/mL were incubated with increasing concentrations of a compound for 7 days. Apoptosis was determined using the FITC Annexin V Apoptosis Detection Kit I (BD Bioscience) using the manufacturer’s protocol. For other FACS assays, cells were labeled with fluorochrome-conjugated monoclonal antibodies against human CD14 and CD11b (BD Biosciences) according to the manufacturer’s recommendation. Cells were analyzed using a FACS Calibur (BD Biosciences/Applied Biosystems), and data were processed using the program Flowjo (version7.6.5).

Data set [8] deals with Molm-13 leukemia. Description: Subcutaneous Molm-13 leukemia xenograft in NOD-SCID mice. It is filed as in vivo. As for the experimental part:
In vivo antitumor activity of compound 1 was evaluated in a commonly used mouse model of Molm-13 leukemia. First, in vivo toxicity was assessed in C57BL/6 mice. […] Next, 10^6 Molm-13 cells were injected subcutaneously into NOD-SCID mice, which developed palpable tumors in ~ 1 week and grew rapidly.
All of the mouse studies were conducted in strict compliance with an […] protocol. NOD-SCID mice (6–8 weeks old, from Jackson lab) were obtained and maintained under specific pathogen-free conditions. 10^6 Molm13 cells in medical grade saline were inoculated subcutaneously, and palpable tumors (2–3 mm in diameter) were developed in ~ 1 week. Mice were treated with compound 1 (30 mg/kg/day for 13 days) in saline (0.1 mL) administered intraperitoneally. Tumors were measured every day and estimated by using the formula a × b^2/2.

Data set [9] deals with U266 cells. The data set is described as follows: Antiproliferation assay (XTT), U266. To be noted: Homo sapiens, U-266, 168 h, read-out: Antiproliferative activity, EC50, U266. On the technique in general: Tetrazolium assays rely on reduction of a dye to a coloured formazan, in cell work by metabolically active cells.
Description: as §2
Data set [10] concerns Molm-13 cells. Description: Antiproliferation assay (XTT), Molm-13.
Description: as §2

Usually Dmax stands for the greatest extent of degradation seen. For orientation: IC50 means the concentration that gives 50% inhibition. Low readings indicate higher potency, high ones lower potency. In the case of `C[C@H]1CCCN1Cc1nc2cc(NC(=O)c3ccc4c(cnn4CCCCCCCCNc4cccc5c4C(=O)N(C4CCC(=O)NC4=O)C5=O)c3)ccc2[nH]1` (stereo partly drawn) [Compound 1], the Dmax is about 95% in data set [1] (MV4-11, MV4;11 cells, read-out: Dmax (maximal degradation) of ENL) and 88% in data set [5]. In data set [1] (MV4;11 cells), the “Concentration of maximal ENL-degrading activity (hook effect above)” value was ~ 500 nM. The DC50 in [1] (MV4;11 cells, read-out: DC50 (concentration at which a protein is reduced by 50%) of ENL) is 37 nM. For the same compound, the EC50 in data set [2] was 1100 to 4100 nM; in data set [4] it was over 50 µM; in data set [9] it was 4.1 ± 1.8 µM; in [10] (Homo sapiens, MOLM-13, 168 h, read-out: EC50 against proliferation of Molm-13 cells), 320 nM. Also, the IC50 in data set [3] was 170 nM. For the same compound, the “Levels of AF9, AFF4, cyclin-T1 and DOT1L” value in data set [6] is listed as “not significantly decreased”. In addition, the “Cell differentiation (cells with high levels of CD14 and CD11b)” value in data set [7] is “induced cell differentiation”. Further, in data set [8] (30 mg/kg/day for Day 3–15), the Body weight result was “did not cause significant weight losses”. The Tumor growth entry in [8] (30 mg/kg/day for Day 3–15, intraperitoneally) is on record as “significantly inhibited tumor growth”. Further, the Animal survival result in [8] (30 mg/kg/day for Day 3–15, intraperitoneally, p < 0.01, 30 mg/kg/day) is “prolonged animal survivals”. The “Time-dependent activity against cell proliferation” value in data set [10] (Molm-13 cells) is given as “did not inhibit cell proliferation during the first 4 days”.

These data come from PMC8994274, “A proteolysis-targeting chimera molecule selectively degrades ENL and inhibits malignant gene expression and tumor growth” (Journal of Hematology & Oncology, 2022).
